Source: ChEMBL document CHEMBL1201862, “PubChem BioAssay data set” (2004)
Active and inactive are the calls of the source.

How the values were obtained:
[1] = target: T1, Corticotropin-releasing factor receptor 2/Corticotropin-releasing factor-binding protein (Homo sapiens, UniProt P24387+Q13324); test: activators of CRF receptor 2 with binding protein – uHTS hits, confirmation (AID 602473); format: functional; conditions: read-out: EC50_Mean
T1 sequence (Q13324 whole entry): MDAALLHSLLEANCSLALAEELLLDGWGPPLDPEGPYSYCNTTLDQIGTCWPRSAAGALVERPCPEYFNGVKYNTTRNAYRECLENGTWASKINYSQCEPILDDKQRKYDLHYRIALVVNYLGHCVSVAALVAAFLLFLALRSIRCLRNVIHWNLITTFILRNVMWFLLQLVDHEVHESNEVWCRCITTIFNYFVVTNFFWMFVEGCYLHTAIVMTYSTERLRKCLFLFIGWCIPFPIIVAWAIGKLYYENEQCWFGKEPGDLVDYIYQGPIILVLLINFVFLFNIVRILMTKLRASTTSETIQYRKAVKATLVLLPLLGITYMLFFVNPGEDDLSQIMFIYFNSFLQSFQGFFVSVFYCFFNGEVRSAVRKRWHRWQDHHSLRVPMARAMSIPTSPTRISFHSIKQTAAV
T1 sequence (P24387 whole entry): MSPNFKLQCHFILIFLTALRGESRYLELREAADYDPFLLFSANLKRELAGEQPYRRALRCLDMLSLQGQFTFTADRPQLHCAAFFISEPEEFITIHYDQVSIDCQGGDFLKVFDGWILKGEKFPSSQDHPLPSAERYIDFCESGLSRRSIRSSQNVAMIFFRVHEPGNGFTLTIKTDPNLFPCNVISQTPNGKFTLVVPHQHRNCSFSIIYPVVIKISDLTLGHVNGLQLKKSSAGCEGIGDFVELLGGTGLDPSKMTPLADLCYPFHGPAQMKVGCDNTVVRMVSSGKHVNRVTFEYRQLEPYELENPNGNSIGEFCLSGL

[2] = target: T1, Corticotropin-releasing factor receptor 2/Corticotropin-releasing factor-binding protein; test: Dose Response confirmation of uHTS hits for small molecule antagonists of the CRF-binding protein and CRF-R2 receptor complex.; format: functional; conditions: read-out: IC50_Mean
Cytochrome P450 2C19 = Cytochrome P450 2C19 (Homo sapiens, UniProt P33261); test: Cytochrome panel assay with activity outcomes. Panel member name: p450-cyp2c19 Compounds with AC50 equal or less than 10 uM are considered active; format: functional; conditions: read-out: AC50
Cytochrome P450 2C19, sequence (P33261 whole entry): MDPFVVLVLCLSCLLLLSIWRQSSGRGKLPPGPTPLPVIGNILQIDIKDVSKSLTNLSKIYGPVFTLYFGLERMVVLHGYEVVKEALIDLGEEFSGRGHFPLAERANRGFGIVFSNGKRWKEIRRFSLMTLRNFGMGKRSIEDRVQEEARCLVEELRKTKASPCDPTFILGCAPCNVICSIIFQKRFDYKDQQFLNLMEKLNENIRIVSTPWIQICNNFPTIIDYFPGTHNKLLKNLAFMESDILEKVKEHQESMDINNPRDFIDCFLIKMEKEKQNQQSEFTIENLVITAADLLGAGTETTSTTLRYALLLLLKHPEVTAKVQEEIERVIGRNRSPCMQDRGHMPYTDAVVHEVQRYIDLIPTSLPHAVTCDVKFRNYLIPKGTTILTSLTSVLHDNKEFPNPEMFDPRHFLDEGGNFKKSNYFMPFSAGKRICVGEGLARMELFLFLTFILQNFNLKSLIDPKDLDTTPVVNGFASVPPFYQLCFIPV

Large T antigen = Large T antigen (Simian virus 40, UniProt P03070); format: functional, Betapolyomavirus macacae;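 also: Confirmatory-stage PubChem screen for compounds that inhibit SV40 T antigen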
Large T antigen, sequence (P03070 whole entry): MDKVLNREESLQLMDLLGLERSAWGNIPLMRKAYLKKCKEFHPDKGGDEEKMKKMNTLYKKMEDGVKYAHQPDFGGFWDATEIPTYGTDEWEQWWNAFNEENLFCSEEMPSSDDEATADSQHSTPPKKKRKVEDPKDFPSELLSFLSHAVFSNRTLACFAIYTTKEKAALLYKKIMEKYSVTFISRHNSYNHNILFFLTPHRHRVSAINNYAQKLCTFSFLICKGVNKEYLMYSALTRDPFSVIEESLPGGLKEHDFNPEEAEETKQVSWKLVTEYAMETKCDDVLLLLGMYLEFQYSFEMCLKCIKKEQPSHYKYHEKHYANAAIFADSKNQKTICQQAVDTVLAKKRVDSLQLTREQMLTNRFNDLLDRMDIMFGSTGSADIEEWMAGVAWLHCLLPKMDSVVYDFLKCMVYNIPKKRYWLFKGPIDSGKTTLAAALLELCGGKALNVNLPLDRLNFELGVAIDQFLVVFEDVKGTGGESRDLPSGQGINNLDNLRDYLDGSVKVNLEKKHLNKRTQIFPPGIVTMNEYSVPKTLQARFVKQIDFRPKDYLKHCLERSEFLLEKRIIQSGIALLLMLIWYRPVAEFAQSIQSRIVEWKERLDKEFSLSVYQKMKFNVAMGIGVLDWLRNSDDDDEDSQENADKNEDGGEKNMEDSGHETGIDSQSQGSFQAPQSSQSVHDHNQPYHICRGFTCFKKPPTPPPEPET

Cytochrome P450 3A4 = Cytochrome P450 3A4 (Homo sapiens, UniProt P08684);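 also: CYP3A4 tested as one member of a cytochrome P450 panel screen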
Cytochrome P450 3A4, sequence (P08684 whole entry): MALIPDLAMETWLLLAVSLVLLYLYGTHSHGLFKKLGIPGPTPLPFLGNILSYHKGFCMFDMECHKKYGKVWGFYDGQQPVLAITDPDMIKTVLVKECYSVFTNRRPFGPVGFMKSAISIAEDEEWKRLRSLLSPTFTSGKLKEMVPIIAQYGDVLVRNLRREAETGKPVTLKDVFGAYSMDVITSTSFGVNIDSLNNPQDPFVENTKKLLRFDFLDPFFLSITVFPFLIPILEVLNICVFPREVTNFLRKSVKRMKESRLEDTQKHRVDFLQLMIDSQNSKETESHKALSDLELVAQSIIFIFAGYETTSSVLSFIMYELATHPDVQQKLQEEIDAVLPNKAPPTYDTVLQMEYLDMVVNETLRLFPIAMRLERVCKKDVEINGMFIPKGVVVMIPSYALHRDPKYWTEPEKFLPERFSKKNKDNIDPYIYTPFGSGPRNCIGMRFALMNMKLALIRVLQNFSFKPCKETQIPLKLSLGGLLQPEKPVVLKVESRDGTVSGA

[3] = target: T2, Rac GTPase-activating protein 1 (Homo sapiens, UniProt Q9H0H5); test: MgcRacGAP GTPase-activating activity inhibitors, confirmation, biochemical, ADP Hunter fluorescence, primary and confirmatory (AID 624330); format: functional
T2 sequence (Q9H0H5 whole entry): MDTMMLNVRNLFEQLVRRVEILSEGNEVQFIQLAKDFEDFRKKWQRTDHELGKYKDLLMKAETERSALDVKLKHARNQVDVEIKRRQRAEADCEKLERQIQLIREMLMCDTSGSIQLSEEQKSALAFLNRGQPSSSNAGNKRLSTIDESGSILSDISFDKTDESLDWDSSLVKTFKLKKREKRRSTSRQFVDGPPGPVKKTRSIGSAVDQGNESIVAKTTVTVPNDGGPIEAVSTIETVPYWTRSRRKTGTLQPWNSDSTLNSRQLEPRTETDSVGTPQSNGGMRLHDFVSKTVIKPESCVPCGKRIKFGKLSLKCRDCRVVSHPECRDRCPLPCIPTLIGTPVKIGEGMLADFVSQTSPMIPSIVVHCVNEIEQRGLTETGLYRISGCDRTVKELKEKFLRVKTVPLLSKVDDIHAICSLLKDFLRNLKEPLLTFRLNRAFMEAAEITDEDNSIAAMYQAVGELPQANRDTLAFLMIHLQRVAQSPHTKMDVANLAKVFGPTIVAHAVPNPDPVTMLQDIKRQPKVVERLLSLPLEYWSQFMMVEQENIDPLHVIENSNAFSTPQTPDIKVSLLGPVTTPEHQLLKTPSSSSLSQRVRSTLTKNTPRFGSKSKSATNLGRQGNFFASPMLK

[4] = control 3'UTR Renilla luciferase suppression, dose response, counter-screen for Shn3 inhibitor project, cell-based, Clone20-Shn3RL, cherry-picked (AID 624133); format: functional
[5] = Shn3 3'UTR reporter inhibitors, dose response, cell-based, Clone20 osteoblasts, firefly luciferase, cherry-picked (AID 624132); format: functional;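 also: firefly luciferase luminescence from reporter carrying the Shn3 3'UTR in osteoblasts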
Protein RecA = target: T3, Protein RecA (Mycobacterium tuberculosis, UniProt P9WHJ3); test: Fluorescence Cell-Free Homogeneous Dose Retest to Identify Inhibitors of RecA-Intein Splicing Activity. [Related pubchem assays (depositor defined):AID2097, AID2223, AID489010, AID492950]; format: functional
T3 sequence (P9WHJ3 whole entry): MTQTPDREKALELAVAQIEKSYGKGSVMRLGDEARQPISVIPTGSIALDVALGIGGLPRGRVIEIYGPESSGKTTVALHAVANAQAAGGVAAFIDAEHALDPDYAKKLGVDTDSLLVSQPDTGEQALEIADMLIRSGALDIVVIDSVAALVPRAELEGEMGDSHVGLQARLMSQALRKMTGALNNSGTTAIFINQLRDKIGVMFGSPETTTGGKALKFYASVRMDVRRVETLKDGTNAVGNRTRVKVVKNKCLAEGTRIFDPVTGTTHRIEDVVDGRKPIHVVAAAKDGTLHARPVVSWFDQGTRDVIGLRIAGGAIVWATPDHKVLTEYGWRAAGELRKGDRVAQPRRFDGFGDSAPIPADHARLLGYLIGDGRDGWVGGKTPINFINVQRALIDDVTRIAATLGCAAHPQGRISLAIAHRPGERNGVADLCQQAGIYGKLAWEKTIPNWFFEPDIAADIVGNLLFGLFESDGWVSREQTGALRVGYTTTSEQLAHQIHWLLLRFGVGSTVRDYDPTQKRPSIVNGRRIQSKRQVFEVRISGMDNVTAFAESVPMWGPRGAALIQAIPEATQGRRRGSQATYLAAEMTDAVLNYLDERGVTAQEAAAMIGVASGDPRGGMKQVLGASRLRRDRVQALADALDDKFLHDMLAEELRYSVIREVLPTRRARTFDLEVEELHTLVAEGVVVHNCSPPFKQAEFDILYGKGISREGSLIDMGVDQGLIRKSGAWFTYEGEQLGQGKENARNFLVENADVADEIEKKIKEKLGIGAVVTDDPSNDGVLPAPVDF

[6] = target: T4, Replicative DNA helicase DnaB (Mycobacterium tuberculosis, UniProt P9WMR3); test: DnaB intein splicing inhibitors, dose response, biochemical, cell-free fluorescence (AID 449749); format: functional
T4 sequence (P9WMR3 whole entry): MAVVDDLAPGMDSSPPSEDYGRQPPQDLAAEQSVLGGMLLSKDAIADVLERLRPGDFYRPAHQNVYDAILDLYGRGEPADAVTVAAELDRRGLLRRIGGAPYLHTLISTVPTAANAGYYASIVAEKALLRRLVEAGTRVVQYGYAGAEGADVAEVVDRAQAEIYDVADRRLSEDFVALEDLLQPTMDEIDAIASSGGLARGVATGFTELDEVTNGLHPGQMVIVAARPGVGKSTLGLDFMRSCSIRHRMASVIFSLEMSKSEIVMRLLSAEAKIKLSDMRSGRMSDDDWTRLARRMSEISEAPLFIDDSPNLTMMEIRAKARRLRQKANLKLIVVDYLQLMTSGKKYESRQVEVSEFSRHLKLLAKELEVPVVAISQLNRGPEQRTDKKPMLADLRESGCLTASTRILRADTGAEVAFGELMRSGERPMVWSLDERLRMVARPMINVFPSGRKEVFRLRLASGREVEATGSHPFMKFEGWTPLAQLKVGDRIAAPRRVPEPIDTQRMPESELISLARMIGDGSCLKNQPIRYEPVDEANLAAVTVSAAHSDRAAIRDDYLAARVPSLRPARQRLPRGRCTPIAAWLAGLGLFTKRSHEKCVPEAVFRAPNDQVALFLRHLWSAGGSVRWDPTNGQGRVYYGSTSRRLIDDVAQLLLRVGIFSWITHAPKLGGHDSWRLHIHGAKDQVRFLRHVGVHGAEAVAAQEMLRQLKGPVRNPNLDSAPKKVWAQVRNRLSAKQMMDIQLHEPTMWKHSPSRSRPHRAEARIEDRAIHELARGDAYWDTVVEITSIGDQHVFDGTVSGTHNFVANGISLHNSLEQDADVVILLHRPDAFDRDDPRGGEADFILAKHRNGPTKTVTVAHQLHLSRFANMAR

Cytochrome P450 1A2 = target: T5, Cytochrome P450 1A2 (Homo sapiens, UniProt P05177);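 also: PubChem cytochrome P450 panel assay, CYP1A2 panel member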
T5 sequence (P05177 whole entry): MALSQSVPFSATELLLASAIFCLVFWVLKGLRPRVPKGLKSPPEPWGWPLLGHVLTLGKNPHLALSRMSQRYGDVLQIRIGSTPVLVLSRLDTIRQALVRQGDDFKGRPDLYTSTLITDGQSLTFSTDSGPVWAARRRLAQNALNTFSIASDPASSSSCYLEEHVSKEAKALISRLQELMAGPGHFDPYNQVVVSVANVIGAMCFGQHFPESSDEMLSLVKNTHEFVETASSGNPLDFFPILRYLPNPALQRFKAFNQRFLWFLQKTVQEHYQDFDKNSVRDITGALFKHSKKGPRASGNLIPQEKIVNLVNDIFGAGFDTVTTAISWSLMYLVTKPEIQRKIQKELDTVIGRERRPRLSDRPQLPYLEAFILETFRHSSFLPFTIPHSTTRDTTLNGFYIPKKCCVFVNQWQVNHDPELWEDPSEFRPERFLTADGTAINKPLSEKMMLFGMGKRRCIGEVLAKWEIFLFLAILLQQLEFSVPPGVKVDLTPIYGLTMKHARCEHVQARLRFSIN

[7] = target: T6, Heat shock factor protein 1 (Mus musculus, UniProt P38532); test: HSF1 potentiators in luciferase reporter cells, confirmation, cell-based, NIH3T3, luminescence, dose retest (AID 435004); format: functional;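 also: stress induced by proteasome inhibitor MG132 added 30 min after compound; luciferase reporter driven by HSF1 response element in NIH3T3 cells; actives raise luminescence as potentiators of the MG132 stress response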
T6 sequence (P38532 whole entry): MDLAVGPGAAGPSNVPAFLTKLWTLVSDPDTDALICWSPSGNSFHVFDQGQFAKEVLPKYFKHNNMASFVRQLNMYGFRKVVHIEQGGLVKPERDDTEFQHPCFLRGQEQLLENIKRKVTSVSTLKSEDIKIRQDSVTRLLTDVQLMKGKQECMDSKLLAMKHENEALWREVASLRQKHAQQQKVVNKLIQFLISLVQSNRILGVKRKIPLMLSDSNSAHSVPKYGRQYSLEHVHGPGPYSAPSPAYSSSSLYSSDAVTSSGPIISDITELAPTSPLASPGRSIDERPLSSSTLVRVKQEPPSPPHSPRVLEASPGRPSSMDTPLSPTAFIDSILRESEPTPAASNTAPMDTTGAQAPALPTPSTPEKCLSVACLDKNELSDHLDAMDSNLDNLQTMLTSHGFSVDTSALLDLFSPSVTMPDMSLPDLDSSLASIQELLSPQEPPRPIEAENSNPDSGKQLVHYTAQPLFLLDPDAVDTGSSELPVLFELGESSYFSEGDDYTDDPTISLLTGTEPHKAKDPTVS

Compound	EC50 [1]	IC50 [2]	also measured
CCCNC(=O)c1ccc(CN2CCc3ccccc3C2)cc1	> 53 µM (inactive)	> 47.1 µM (inactive)	
CCc1nnc(NC(=O)CCC(=O)N2CCN(Cc3cc(Cl)ccc3OC)CC2)s1	> 53 µM (inactive)	> 47.1 µM (inactive)	
Fc1ccc(C2c3cccn3CCN2C(S)=Nc2cccc(F)c2)cc1 (centres undefined)	> 53 µM (inactive)	> 47.1 µM (inactive)	
CCN(CC)c1ccc(NC(=O)CSc2nnc3nc(C)cc(C)n23)cc1			AC50 (Cytochrome P450 2C19): 17.8 µM (inconclusive); IC50 (Large T antigen): 19.8 µM (active); AC50 (Cytochrome P450 3A4): 39.8 µM (inconclusive)
Cn1cccc1/C=N/N1CCN(c2ccccn2)CC1			IC50 (Large T antigen): 5.17 µM (active); IC50 [3]: 27.6 µM (active)
Cc1cccc(C(=O)N2CCc3ccccc3C2)c1[N+](=O)[O-]	> 53 µM (inactive)	> 47.1 µM (inactive)	
COc1ccc(S(=O)(=O)N2CCN(c3cc(-c4ccccc4)nc4ncnn34)CC2)cc1			AC50 [4]: 1.6 µM (active); AC50 [5]: 3.89 µM (active)
COc1cccc(CNC(=O)CN(c2ccc(C(C)C)cc2)S(=O)(=O)c2c(C)noc2C)c1	> 53 µM (inactive)	> 47.1 µM (inactive)	
O=C(N/N=C/c1ccc(OC(=O)c2ccco2)cc1)c1ccc[n+]([O-])c1			IC50 (Large T antigen): 55.5 µM (active); EC50 (Protein RecA): 24.6 µM (active); AC50 [6]: 24.6 µM (active)
COc1ccc(-c2nc3cnc(N4CCOCC4)nc3n(CCC#N)c2=O)cc1			AC50 (Cytochrome P450 1A2): 3.16 µM (inconclusive)
C[C@@H](CCC(=O)O)C(=O)O			AC50 (Cytochrome P450 1A2): 6.31 µM (inconclusive)
Cc1nc2ccccc2nc(C)c1=NOCc1ccccc1Cl	> 53 µM (inactive)	> 47.1 µM (inactive)	EC50 [7]: > 260 µM (inactive)
N#Cc1ccc(S(=O)(=O)N2CCN(C(=O)[C@@H]3CCCN3C(=O)c3cccs3)CC2)cc1	> 53 µM (inactive)	> 47.1 µM (inactive)	
CC1C/C(=N\NC(=O)c2ccc([N+](=O)[O-])cc2)CC(C)(C)C1 (centres undefined)	> 53 µM (inactive)	> 47.1 µM (inactive)	
O=C(NCCO)c1nc(C(=O)c2ccc(Cl)cc2)c2ccccc2n1	> 53 µM (inactive)	> 47.1 µM (inactive)	
Cc1ccc2oc(=O)c(/C=C(\O)C(C)(C)C)nc2c1			IC50 (Large T antigen): 11 µM (active)
CCOC(=O)C(CC)/C(C)=N\NC(=O)c1cccc(C)c1 (centres undefined)	> 53 µM (inactive)	> 47.1 µM (inactive)	
